Data reported in patent publication US7727988B2, “Azabicyclo[3.1.0]hex-3-yl}alkyl)pyrimidinedione” (Glaxo Group Limited, priority 2006, dated 2010).

Molecular target: T1, dopamine D3 receptor (Homo sapiens, UniProt P35462)
T1 construct: host or cells: Chinese Hamster Ovary (CHO) cells, membranes
Assay: GTPS scintillation proximity assay (GTPS-SPA), CHO_D3 membranes, antagonist format
Format: biochemical
Method: Functional potency of compounds of this invention can be measured by the following GTPS scintillation proximity assay (GTPS-SPA). Cells used in the study are Chinese Hamster Ovary (CHO) Cells. • Cell Line • CHO_D2 • CHO_D3 • Dopamine CHO D3 (Biocat no 1060) transduced with bacmam G0 G-protein (Biocat no 97886)
All steps are performed at 4° C. Cell membranes are prepared as follows. Cell pellets are resuspended in 10 volumes of 50 mM HEPES, 1 mM EDTA pH 7.4, using KOH. Cells are homogenised within a glass waring blender for 2 bursts of 15 secs in 200 mls of buffer (50 mM HEPES, 1 mM leupeptin, 25 μg/ml bacitracin, 1 mM EDTA, 1 mM PMSF, 2 μM Pepstatin A). (the latter 2 reagents added as fresh ×100 and ×500 stocks respectively in ethanol). The blender is plunged into ice for 5 mins after the first burst and 10-40 mins after the final burst to allow foam to dissipate. The material is then spun at 500 g for 20 mins and the supernatant spun for 36 mins at 48.000 g. The pellet is resuspended in the same buffer as above but without PMSF and Pepstatin A. The material is then forced through a 0.6 mm needle, made up to the required volume, (usually ×4 the volume of the original cell pellet), aliquoted and stored frozen at −80° C.
The final top concentration of test drug is 3 μM in the assay and 11 points serial dilution curves 1:4 in 100% DMSO are carried out using a Biomek FX. The test drug at 1% (0.5 ul) total assay volume (TAV) is added to a solid, white Greiner polypropylene 384-well assay plate. 50% TAV (25 μl) of precoupled (for 60 mins at RT) membranes, 5 μg/well, and Wheatgerm Agglutinin Polystyrene Scintillation Proximity Assay beads (RPNQ0260, Amersham), 0.25 mg/well, in 20 mM HEPES (pH 7.4, 100 mM NaCl, 10 mM MgCl2), 60 μg/mL saponin and 30 uM GDP is added. The third addition is a 20% TAV (10 ul) addition of either buffer, (agonist format) or EC80 final assay concentration of agonist, Quinelorane, prepared in assay buffer (antagonist format). The assay is started by the addition of 29% TAV (15 ul) of GTP[35S] 0.38 nM final (37 MBq/mL, 1160 Ci/mmol, Amersham). After all additions assay plates are spun down for 1 min at 1,000 rpm. The final assay cocktail ([…]) is incubated at room temperature to equilibrate for 3-6 hours before reading on a ViewLux™ (613/55 filter) luminescence imager 5 min/plate.
The effect of the test drug over the basal generates fpKi values of test drug are calculated from the IC50 generated by “antagonist format” experiment, using Cheng & Prusoff equation: fKi=IC50/1+([A]/EC50) where: [A] is the concentration of the agonist Quinelorane in the assay and EC50 is the Quinelorane EC50 value obtained in the same experiment. fpKi is defined as −logfKi. • pKi results are only estimated to be accurate to about 0.3-0.5.

T1 sequence (P35462 whole entry, species assumed): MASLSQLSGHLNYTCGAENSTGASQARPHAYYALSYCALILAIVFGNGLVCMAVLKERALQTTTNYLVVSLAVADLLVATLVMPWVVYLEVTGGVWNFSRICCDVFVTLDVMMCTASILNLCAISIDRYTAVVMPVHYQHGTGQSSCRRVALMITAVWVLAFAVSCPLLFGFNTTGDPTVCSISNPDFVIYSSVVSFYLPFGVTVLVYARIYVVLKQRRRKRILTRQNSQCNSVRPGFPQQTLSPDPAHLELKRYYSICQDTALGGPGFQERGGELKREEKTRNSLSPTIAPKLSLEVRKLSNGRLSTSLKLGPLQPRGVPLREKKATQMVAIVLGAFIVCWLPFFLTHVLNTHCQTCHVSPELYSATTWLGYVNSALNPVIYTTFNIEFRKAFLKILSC

SMILES | Selectivity for D3 over D2 receptors [fold]
Cl.O=c1[nH]c(=O)n(CCCN2C[C@@H]3C[C@]3(c3ccc(C(F)(F)F)cc3)C2)cc1-c1cccs1 [Example E8, 5-(2-thienyl)-1-(3-{(1S,5R)-1-[4-(trifluoromethyl)phenyl]-3-azabicyclo[3.1.0]hex-3-yl}propyl)-2,4(1H,3H)-pyrimidinedione hydrochloride] | 100
Cc1cccc(-c2cn(CCCN3C[C@@H]4C[C@]4(c4ccc(C(F)(F)F)cc4)C3)c(=O)[nH]c2=O)n1.Cl.Cl [Example E30, 5-(6-methyl-2-pyridinyl)-1-(3-{(1S,5R)-1-[4-(trifluoromethyl)phenyl]-3-azabicyclo[3.1.0]hex-3-yl}propyl)-2,4(1H,3H)-pyrimidinedione dihydrochloride] | 199
